Patent US20240336601A1 (Chulalongkorn University, priority 2020, published 2024)

Assays:
PD-1/PD-L1 interaction = biological target: T1, PD-1/PD-L1 interaction (Homo sapiens, UniProt Q9NZQ7); assay: PD-1/PD-L1 blockage cell-based bioassay (Jurkat NFAT luciferase / CHO-PDL1 co-culture); settings: Jurkat NFAT cells co-cultured with CHO-PDL1 cells, 6 h, luminescence
T1 construct: expressed in transfected cells

[1] = biological target: interaction between PD-1 and PD-L1 (Homo sapiens, UniProt Q9NZQ7); assay: PD-1/PD-L1 protein-protein interaction assay (ALPHA); format: binding; settings: 2 nM His-tagged human PD-L1, 0.6 nM PD-1-Fc, AlphaScreen
Sequence of interaction between PD-1 and PD-L1 (Q9NZQ7 19-238 limits assumed): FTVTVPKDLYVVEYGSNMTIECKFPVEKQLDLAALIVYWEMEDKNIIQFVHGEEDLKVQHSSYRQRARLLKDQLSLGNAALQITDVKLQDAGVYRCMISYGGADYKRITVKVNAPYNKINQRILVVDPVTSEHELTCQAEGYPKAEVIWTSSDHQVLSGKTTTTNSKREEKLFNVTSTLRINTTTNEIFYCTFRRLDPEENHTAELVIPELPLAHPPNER

T1 sequence (Q9NZQ7 19-290): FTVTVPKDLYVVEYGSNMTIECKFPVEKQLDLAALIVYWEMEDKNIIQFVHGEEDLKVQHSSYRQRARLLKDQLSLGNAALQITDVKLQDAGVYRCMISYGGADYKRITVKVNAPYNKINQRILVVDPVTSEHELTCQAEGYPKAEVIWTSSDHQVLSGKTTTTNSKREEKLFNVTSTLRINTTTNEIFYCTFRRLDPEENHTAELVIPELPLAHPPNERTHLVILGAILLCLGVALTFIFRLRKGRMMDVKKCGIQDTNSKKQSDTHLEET

| IC50 (PD-1/PD-L1 interaction) | IC50 [1] | Compound |
| --- | --- | --- |
| < 200 nM | < 1 nM | COc1cc(-n2ncc3c(-c4cccc(-c5nc6cc(CN(C)C78CCC(C(=O)O)(CC7)CC8)cc(C#N)c6o5)c4C)cccc32)cc(OC)c1CN1CC[C@@H](O)C1 [Example 157, (R)-4-(((7-cyano-2-(3-(1-(4-((3-hydroxypyrrolidin-1-yl)methyl)-3,5-dimethoxyphenyl)-1H-indazol-4-yl)-2-methylphenyl)benzo[d]oxazol-5-yl)methyl)(methyl)amino)bicyclo[2.2.2]octane-1-carboxylic acid] |
| < 200 nM | 1 to 10 nM | COc1cc(-n2ncc3c(-c4cccc(-c5ccc(CN[C@H]6C[C@@H](O)C6)c(OC)n5)c4Cl)cccc32)cc(OC)c1CNCC(C)(C)C(N)=O [Example 109, 3-((4-(4-(2-chloro-3-(5-(((cis-3-hydroxycyclobutyl)amino)methyl)-6-methoxypyridin-2-yl)phenyl)-1H-indazol-1-yl)-2,6-dimethoxybenzyl)amino)-2,2-dimethylpropanamide] |
